Measurements reported in ChEMBL document CHEMBL1147597, “Synthesis and biological evaluations of novel benzimidazoles as potential antibacterial agents” (Bioorg Med Chem Lett, 2004).
In brackets after ≈: the same amount, converted by molar mass.

Key:
Escherichia coli [1] = experiment: Minimal inhibitory concentration against Escherichia coli (Range is 50-100 uM); assay type: functional
Staphylococcus aureus [2] = experiment: Minimal inhibitory concentration against Staphylococcus aureus (Range is 25-50 uM); assay type: functional
Escherichia coli [3] = experiment: Minimal inhibitory concentration against Escherichia coli; assay type: functional
Staphylococcus aureus [4] = experiment: In vitro minimal inhibitory concentration against Staphylococcus aureus.; assay type: functional
Escherichia coli [5] = experiment: Minimal inhibitory concentration against gram negative Escherichia coli 25922 strain (Range is 12-25 uM); assay type: functional; settings: ATCC25922
Escherichia coli [6] = experiment: Minimal inhibitory concentration against Escherichia coli (Range is 12-25 uM); assay type: functional
Proteus vulgaris [7] = experiment: Minimal inhibitory concentration against gram negative Proteus vulgaris 8427 strain (Range is 12-25 uM); assay type: functional
Streptococcus pneumoniae = experiment: Minimal inhibitory concentration against gram positive Streptococcus pneumoniae 6303 strain (Range is 12-25 uM); assay type: functional
Staphylococcus aureus [8] = experiment: Minimal inhibitory concentration against gram positive Staphylococcus aureus 13709 strain (Range is 6-12 uM); assay type: functional
Staphylococcus aureus [9] = experiment: Minimal inhibitory concentration against Staphylococcus aureus (Range is 6-12 uM); assay type: functional
Klebsiella pneumoniae [10] = experiment: Minimal inhibitory concentration against gram negative Klebsiella pneumoniae 13383 strain (Range is 25-50 uM); assay type: functional
Bacteria = experiment: Inhibitory activity against bacteria in the transcription/translation assay; assay type: functional, organism-based
Enterococcus hirae [11] = experiment: Minimal inhibitory concentration against gram positive Enterococcus hirae 29212 strain (Range is 3-6 uM); assay type: functional
Pseudomonas aeruginosa [12] = experiment: Minimal inhibitory concentration against gram negative Pseudomonas aeruginosa 25416 strain; assay type: functional
Streptococcus pyogenes = experiment: Minimal inhibitory concentration against gram positive Streptococcus pyogenes 49399 strain (Range is 6-12 uM); assay type: functional
Staphylococcus aureus [13] = experiment: Minimal inhibitory concentration against Staphylococcus aureus (Range is 50-100 uM); assay type: functional
Staphylococcus aureus [14] = experiment: Minimal inhibitory concentration against Staphylococcus aureus (Range is 12-25 uM); assay type: functional
Klebsiella pneumoniae [15] = experiment: Minimal inhibitory concentration against gram negative Klebsiella pneumoniae 13383 strain (Range is 12-25 uM); assay type: functional
Escherichia coli [16] = experiment: Minimal inhibitory concentration against Escherichia coli (Range is 25-50 uM); assay type: functional
Enterococcus hirae [17] = experiment: Minimal inhibitory concentration against gram positive Enterococcus hirae 29212 strain (Range is 1-3 uM); assay type: functional
Proteus vulgaris [18] = experiment: Minimal inhibitory concentration against gram negative Proteus vulgaris 8427 strain; assay type: functional
Escherichia coli [19] = experiment: Minimal inhibitory concentration against gram negative Escherichia coli 25922 strain (Range is 25-50 uM); assay type: functional; settings: ATCC25922
Pseudomonas aeruginosa [20] = experiment: Minimal inhibitory concentration against gram negative Pseudomonas aeruginosa 25416 strain (Range is 50-100 uM); assay type: functional
Proteus vulgaris [21] = experiment: Minimal inhibitory concentration against gram negative Proteus vulgaris 8427 strain (Range is 25-50 uM); assay type: functional
Escherichia coli [22] = experiment: Minimal inhibitory concentration against gram negative Escherichia coli 25922 strain; assay type: functional; settings: ATCC25922
Staphylococcus aureus [23] = experiment: Minimal inhibitory concentration against Staphylococcus aureus (Range is 1-3 uM); assay type: functional
Escherichia coli [24] = experiment: Minimal inhibitory concentration against Escherichia coli (Range is 3-6 uM); assay type: functional

Which MIC (Escherichia coli [1]) does the source give for `O=C1c2cc(Cl)c([N+](=O)[O-])cc2C(=O)N1CCCCCn1c(C2CCNCC2)nc2cc(Cl)c(Cl)cc21` here?
The MIC was 100 µM (≈ 56.5 µg/mL).

And the MIC (Staphylococcus aureus [2])?
Its MIC is 50 µM (≈ 28.2 µg/mL).

How did the MIC (Escherichia coli [3]) turn out when `Clc1cc2nc(SCCCCn3c(C4CCNCC4)nc4cc(Cl)c(Cl)cc43)[nH]c2cc1Cl` was run?
The MIC was over 100 µM.

What about the MIC (Staphylococcus aureus [4]) of the same compound?
The MIC was over 100 µM.

`O=C(Cn1c(C2CCNCC2)nc2cc(Cl)c(Cl)cc21)NNC(=O)Nc1ccc2c(c1)OCO2` was tested. Which MIC (Escherichia coli [1]) did it give?
The MIC was 100 µM (≈ 50.5 µg/mL).

What about the MIC (Staphylococcus aureus [2]) of the same compound?
Its MIC is 50 µM (≈ 25.3 µg/mL).

For `O=C(Cn1c(C2CCNCC2)nc2cc(Cl)c(Cl)cc21)N/N=C/c1c[nH]c2ccccc12`, which MIC (Escherichia coli [3]) is on record?
The MIC was over 100 µM.

And the MIC (Staphylococcus aureus [2])?
Its MIC is 50 µM (≈ 23.5 µg/mL).

`O=C(Cn1c(C2CCNCC2)nc2cc(Cl)c(Cl)cc21)NNC(=O)NC12C[C@H]3C[C@@H](C1)C[C@@H](C2)C3` was tested. Which MIC (Escherichia coli [5]) did it give?
Its MIC is 25 µM (≈ 13 µg/mL).

And the MIC (Escherichia coli [6])?
Its MIC is 25 µM (≈ 13 µg/mL).

And the MIC (Proteus vulgaris [7])?
Its MIC is 25 µM (≈ 13 µg/mL).

What about the MIC (Streptococcus pneumoniae) of the same compound?
Its MIC is 25 µM (≈ 13 µg/mL).

What about the MIC (Staphylococcus aureus [8]) of the same compound?
Its MIC is 12 µM (≈ 6.23 µg/mL).

And the MIC (Staphylococcus aureus [9])?
The MIC was 12 µM (≈ 6.23 µg/mL).

What about the MIC (Klebsiella pneumoniae [10]) of the same compound?
The MIC was 50 µM (≈ 26 µg/mL).

What about the IC50 (Bacteria) of the same compound?
Its IC50 is over 100 µM.

And the MIC (Enterococcus hirae [11])?
Its MIC is 6 µM (≈ 3.12 µg/mL).

And the MIC (Pseudomonas aeruginosa [12])?
Its MIC is over 100 µM.

What about the MIC (Streptococcus pyogenes) of the same compound?
Its MIC is 12 µM (≈ 6.23 µg/mL).

Which results are given for `O=C(Cn1c(C2CCNCC2)nc2cc(Cl)c(Cl)cc21)N/N=C/c1c[nH]cn1`?
MIC (Escherichia coli [3]): > 100 µM; MIC (Staphylococcus aureus [13]): 100 µM (≈ 42 µg/mL)

Which results are given for `O=C(Cn1c(C2CCNCC2)nc2cc(Cl)c(Cl)cc21)N/N=C/c1ccc(O)c(O)c1O`?
MIC (Escherichia coli [3]): > 100 µM; MIC (Staphylococcus aureus [14]): 25 µM (≈ 12 µg/mL)

For `COc1cc(NC(=O)NNC(=O)Cn2c(C3CCNCC3)nc3cc(Cl)c(Cl)cc32)cc(OC)c1`, which MIC (Klebsiella pneumoniae [15]) is on record?
The MIC was 25 µM (≈ 13 µg/mL).

And the MIC (Streptococcus pneumoniae)?
The MIC was 25 µM (≈ 13 µg/mL).

What about the MIC (Staphylococcus aureus [8]) of the same compound?
Its MIC is 12 µM (≈ 6.26 µg/mL).

What about the MIC (Escherichia coli [16]) of the same compound?
The MIC was 50 µM (≈ 26.1 µg/mL).

And the MIC (Staphylococcus aureus [9])?
Its MIC is 12 µM (≈ 6.26 µg/mL).

And the MIC (Enterococcus hirae [17])?
Its MIC is 3 µM (≈ 1.56 µg/mL).

And the IC50 (Bacteria)?
The IC50 was over 100 µM.

And the MIC (Pseudomonas aeruginosa [12])?
Its MIC is over 100 µM.

What about the MIC (Proteus vulgaris [18]) of the same compound?
Its MIC is over 100 µM.

What about the MIC (Escherichia coli [19]) of the same compound?
The MIC was 50 µM (≈ 26.1 µg/mL).

And the MIC (Streptococcus pyogenes)?
Its MIC is 12 µM (≈ 6.26 µg/mL).

Which results are given for `O=C1CCC(=O)N1CCCCCn1c(C2CCNCC2)nc2cc(Cl)c(Cl)cc21`?
MIC (Escherichia coli [3]): > 100 µM; MIC (Staphylococcus aureus [4]): > 100 µM

How did the MIC (Escherichia coli [3]) turn out when `O=C(Cn1c(C2CCNCC2)nc2cc(Cl)c(Cl)cc21)NNC(=O)Nc1ccccc1` was run?
Its MIC is over 100 µM.

And the MIC (Staphylococcus aureus [13])?
The MIC was 100 µM (≈ 46.1 µg/mL).

Which results are given for `COc1cc(/C=N/NC(=O)Cn2c(C3CCNCC3)nc3cc(Cl)c(Cl)cc32)cc(O)c1OC`?
MIC (Escherichia coli [3]): > 100 µM; MIC (Staphylococcus aureus [2]): 50 µM (≈ 25.3 µg/mL)

For `O=C(Cn1c(C2CCNCC2)nc2cc(Cl)c(Cl)cc21)N/N=C/c1ccc2ccccc2n1`, which MIC (Escherichia coli [3]) is on record?
Its MIC is over 100 µM.

And the MIC (Staphylococcus aureus [2])?
Its MIC is 50 µM (≈ 24.1 µg/mL).

Which MIC (Pseudomonas aeruginosa [20]) does the source give for `O=C(Cn1c(C2CCNCC2)nc2cc(Cl)c(Cl)cc21)N/N=C/c1cnn(-c2ccccc2)c1Cl` here?
Its MIC is 100 µM (≈ 53.1 µg/mL).

What about the MIC (Proteus vulgaris [21]) of the same compound?
The MIC was 50 µM (≈ 26.5 µg/mL).

What about the MIC (Streptococcus pneumoniae) of the same compound?
The MIC was 25 µM (≈ 13.3 µg/mL).

What about the MIC (Escherichia coli [3]) of the same compound?
The MIC was over 100 µM.

What about the MIC (Staphylococcus aureus [8]) of the same compound?
Its MIC is 12 µM (≈ 6.37 µg/mL).

What about the MIC (Escherichia coli [22]) of the same compound?
Its MIC is over 100 µM.

What about the MIC (Staphylococcus aureus [9]) of the same compound?
The MIC was 12 µM (≈ 6.37 µg/mL).

What about the MIC (Enterococcus hirae [17]) of the same compound?
The MIC was 3 µM (≈ 1.59 µg/mL).

And the MIC (Klebsiella pneumoniae [10])?
Its MIC is 50 µM (≈ 26.5 µg/mL).

And the IC50 (Bacteria)?
The IC50 was over 100 µM.

What about the MIC (Streptococcus pyogenes) of the same compound?
Its MIC is 12 µM (≈ 6.37 µg/mL).

`O=C(Cn1c(C2CCNCC2)nc2cc(Cl)c(Cl)cc21)NNC(=S)Nc1ccccc1` was tested. Which MIC (Escherichia coli [1]) did it give?
Its MIC is 100 µM (≈ 47.7 µg/mL).

What about the MIC (Staphylococcus aureus [2]) of the same compound?
Its MIC is 50 µM (≈ 23.9 µg/mL).

Which results are given for `O=C(Cn1c(C2CCNCC2)nc2cc(Cl)c(Cl)cc21)NNC(=O)Nc1ccc([N+](=O)[O-])cc1`?
MIC (Escherichia coli [3]): > 100 µM; MIC (Staphylococcus aureus [2]): 50 µM (≈ 25.3 µg/mL)

Which MIC (Escherichia coli [3]) does the source give for `O=C(Cn1c(C2CCNCC2)nc2cc(Cl)c(Cl)cc21)N/N=C/c1cccc(OC(F)(F)F)c1` here?
The MIC was over 100 µM.

And the MIC (Staphylococcus aureus [2])?
Its MIC is 50 µM (≈ 25.7 µg/mL).

With `O=C1c2cc3ccccc3cc2C(=O)N1CCCCCn1c(C2CCNCC2)nc2cc(Cl)c(Cl)cc21` as the compound, how does the MIC (Escherichia coli [3]) read?
Its MIC is over 100 µM.

And the MIC (Staphylococcus aureus [4])?
Its MIC is over 100 µM.

Which results are given for `O=C1c2ccccc2C(=O)N1CCCn1c(C2CCNCC2)nc2cc(Cl)c(Cl)cc21`?
MIC (Escherichia coli [3]): > 100 µM; MIC (Staphylococcus aureus [4]): > 100 µM

Which MIC (Escherichia coli [16]) does the source give for `Clc1cc2nc(C3CCNCC3)n(CCCCCN3Cc4ccccc4C3)c2cc1Cl` here?
Its MIC is 50 µM (≈ 22.9 µg/mL).

And the MIC (Staphylococcus aureus [13])?
The MIC was 100 µM (≈ 45.7 µg/mL).

How did the MIC (Staphylococcus aureus [2]) turn out when `CC(C)c1ccc2c(c1)CCC1C(C)(C/N=C(\S)NNC(=O)Cn3c(C4CCNCC4)nc4cc(Cl)c(Cl)cc43)CCC[C@]21C` (some centres not stated) was run?
Its MIC is 50 µM (≈ 33.5 µg/mL).

What about the MIC (Escherichia coli [16]) of the same compound?
Its MIC is 50 µM (≈ 33.5 µg/mL).

For `O=C(Cn1c(C2CCNCC2)nc2cc(Cl)c(Cl)cc21)N/N=C/c1cccc([N+](=O)[O-])c1`, which MIC (Escherichia coli [3]) is on record?
Its MIC is over 100 µM.

What about the MIC (Staphylococcus aureus [2]) of the same compound?
Its MIC is 50 µM (≈ 23.8 µg/mL).

For `O=C(Cn1c(C2CCNCC2)nc2cc(Cl)c(Cl)cc21)N/N=C/c1ccccn1`, which MIC (Escherichia coli [3]) is on record?
The MIC was over 100 µM.

What about the MIC (Staphylococcus aureus [4]) of the same compound?
Its MIC is over 100 µM.

`O=C1c2ccccc2C(=O)N1CCCCn1c(C2CCNCC2)nc2cc(Cl)c(Cl)cc21` was tested. Which MIC (Escherichia coli [3]) did it give?
The MIC was over 100 µM.

What about the MIC (Staphylococcus aureus [4]) of the same compound?
Its MIC is over 100 µM.

`O=C(Cn1c(C2CCNCC2)nc2cc(Cl)c(Cl)cc21)N/N=C/c1ccncc1` was tested. Which MIC (Escherichia coli [3]) did it give?
Its MIC is over 100 µM.

And the MIC (Staphylococcus aureus [4])?
The MIC was over 100 µM.

Which results are given for `NC[C@@H]1O[C@H](O[C@H]2[C@@H](O)[C@H](O[C@@H]3[C@@H](O)[C@H](N)C[C@H](N)[C@H]3O[C@H]3O[C@H](CO)[C@@H](O)[C@H](O)[C@H]3N)O[C@@H]2CO)[C@H](N)[C@@H](O)[C@@H]1O` [PAROMOMYCIN]?
MIC (Staphylococcus aureus [23]): 3 µM (≈ 1.85 µg/mL); MIC (Escherichia coli [24]): 6 µM (≈ 3.69 µg/mL)
